This passage reports Ki results from patent publication US20090054490A1, “METHODS FOR THE TREATMENT OF GERD WITH MGLUR5 ANTAGONISTS” (priority 2007, published 2009).

One may read the Ki as the dissociation constant of the complex between target and ligand, obtained from inhibition or displacement.

For the experiment, the target named is T1, human mGlu5a receptor (Homo sapiens, UniProt P41594).
T1 construct: expressed in transfected cells; host or cells: EBNA cells (transient transfection); cell membrane homogenates
T1 sequence (P41594 21-1180 isoform P41594-2 limits assumed): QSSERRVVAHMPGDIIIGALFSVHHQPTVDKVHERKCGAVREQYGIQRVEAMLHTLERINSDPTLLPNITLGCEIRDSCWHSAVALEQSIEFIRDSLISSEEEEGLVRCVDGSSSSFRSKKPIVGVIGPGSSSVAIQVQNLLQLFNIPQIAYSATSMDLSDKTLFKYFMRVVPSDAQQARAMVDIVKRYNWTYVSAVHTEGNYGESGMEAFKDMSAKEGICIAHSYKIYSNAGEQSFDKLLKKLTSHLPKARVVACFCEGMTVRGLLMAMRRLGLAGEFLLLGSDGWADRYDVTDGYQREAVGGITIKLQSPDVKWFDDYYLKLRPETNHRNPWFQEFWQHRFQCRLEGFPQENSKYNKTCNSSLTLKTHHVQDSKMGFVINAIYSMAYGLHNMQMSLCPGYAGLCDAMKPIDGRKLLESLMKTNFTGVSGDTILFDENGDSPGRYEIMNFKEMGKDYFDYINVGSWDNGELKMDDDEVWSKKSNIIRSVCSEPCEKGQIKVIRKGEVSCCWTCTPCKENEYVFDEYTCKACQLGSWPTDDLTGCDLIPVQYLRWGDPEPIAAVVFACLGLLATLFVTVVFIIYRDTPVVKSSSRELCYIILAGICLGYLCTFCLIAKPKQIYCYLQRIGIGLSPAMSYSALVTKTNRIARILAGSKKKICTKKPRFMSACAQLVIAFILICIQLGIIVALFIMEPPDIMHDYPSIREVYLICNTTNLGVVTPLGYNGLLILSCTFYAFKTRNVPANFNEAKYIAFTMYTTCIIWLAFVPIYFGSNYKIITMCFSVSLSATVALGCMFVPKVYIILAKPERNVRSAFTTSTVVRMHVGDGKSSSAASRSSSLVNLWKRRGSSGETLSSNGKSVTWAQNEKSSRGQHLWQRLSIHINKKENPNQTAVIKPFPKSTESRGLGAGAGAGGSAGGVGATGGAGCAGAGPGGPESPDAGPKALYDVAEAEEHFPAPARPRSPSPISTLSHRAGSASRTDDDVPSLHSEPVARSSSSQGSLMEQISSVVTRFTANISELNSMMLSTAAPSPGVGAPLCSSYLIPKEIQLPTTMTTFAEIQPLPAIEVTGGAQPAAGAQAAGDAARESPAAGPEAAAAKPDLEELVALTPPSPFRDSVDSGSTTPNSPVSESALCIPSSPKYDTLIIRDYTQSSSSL
Briefly: [3H]MPEP competition binding on membranes of EBNA cells transfected with human mGlu5a receptor. The note with it: [3H]MPEP 2 nM, 1 h at 4° C., read-out: Ki (mGluR5). Here is the method: For binding experiments, cDNA encoding human mGlu5a receptor was transiently transfected into EBNA cells using a procedure described by Schlaeger and Christensen [Cytotechnology 15:1-13 (1998)]. Cell membrane homogenates were stored at −80° C. until the day of assay where upon they were thawed and resuspended and polytronised in 15 mM Tris-HCl, 120 mM NaCl, 100 mM KCl, 25 mM CaCl2, 25 mM MgCl2 binding buffer at pH 7.4 to a final assay concentration of 20 […].
Saturation isotherms were determined by addition of twelve [^3H]MPEP concentrations (0.04-100 nM) to these membranes (in a total volume of 200 μl) for 1 h at 4° C. […] Incubations were performed for 1 h at 4° C.
At the end of the incubation, membranes were filtered onto unifilter (96-well white microplate with bonded GF/C filter preincubated 1 h in 0.1% PEI in wash buffer, Packard BioScience, Meriden, Conn.) with a Filtermate 96 harvester (Packard BioScience) and washed 3 times with cold 50 mM Tris-HCl, pH 7.4 buffer. Nonspecific binding was measured in the presence of […]. The radioactivity on the filter was counted (3 min) on a Packard Top-count microplate scintillation counter with quenching correction after addition of 45 μl of microscint 40 (Canberra Packard S.A., Zutrich, Switzerland) and shaking for 20 min.
The inhibition (antagonists) curves were fitted with a four parameter logistic equation giving IC50, and Hill coefficient using an iterative non linear curve fitting software (Xcel fit).
The Ki value is defined by the following formula: […]
L is the concentration of radioligand used in the binding experiment and the Kd value of the radioligand is empirically determined for each batch of membranes prepared.
In the case of `Cc1cc(F)ccc1-n1c(C)nc(C#Cc2ccnc(Cl)c2)c1C` [compound 5, 2-Chloro-4-[1-(4-fluoro-2-methyl-phenyl)-2,5-dimethyl-1H-imidazol-4-ylethynyl]-pyridine], the Ki was 0.05 µM.
As to `Cc1cc(-n2c(C)nc(C#Cc3ccnc(Cl)c3)c2C)ccc1F` [compound 6, 2-Chloro-4-[1-(4-fluoro-3-methyl-phenyl)-2,5-dimethyl-1H-imidazol-4-ylethynyl]-pyridine], the inhibition constant (Ki) turned out to be 0.035 µM.
On to `Cc1ccc(-n2c(C)nc(C#Cc3ccnc(Cl)c3)c2C)cc1` [compound 7, 2-Chloro-4-(2,5-dimethyl-1-p-tolyl-1H-imidazol-4-ylethynyl)-pyridine], for which the Ki turned out to be 0.021 µM.
Take `Cc1ccc(-n2c(C)nc(C#Cc3ccnc(Cl)c3)c2C)cc1Cl` [compound 8, 2-Chloro-4-[1-(3-chloro-4-methyl-phenyl)-2,5-dimethyl-1H-imidazol-4-ylethynyl]-pyridine]: the Ki is 0.01 µM.
On to `COc1ccc(-n2c(C)nc(C#Cc3ccnc(Cl)c3)c2C)cc1` [compound 10, 2-Chloro-4-[1-(4-methoxy-phenyl)-2,5-dimethyl-1H-imidazol-4-ylethynyl]-pyridine], for which the Ki stood at 0.03 µM.
In the case of `Cc1nc(C#Cc2ccnc(Cl)c2)c(C)n1-c1cccc(OC(F)(F)F)c1` [compound 12, 2-Chloro-4-[2,5-dimethyl-1-(3-trifluoromethoxy-phenyl)-1H-imidazol-4-ylethynyl]-pyridine], the inhibitory constant (Ki) worked out at 0.014 µM.
Consider `Cc1nc(C#Cc2ccnc(Cl)c2)c(C)n1-c1ccc(C(F)(F)F)cc1` [compound 13, 2-Chloro-4-[2,5-dimethyl-1-(4-trifluoromethyl-phenyl)-1H-imidazol-4-ylethynyl]-pyridine], for which the Ki was 0.044 µM.
`Cc1cc(-n2c(C)nc(C#Cc3ccnc(Cl)c3)c2C)ccc1OC(F)(F)F` [compound 14, 2-Chloro-4-[2,5-dimethyl-1-(3-methyl-4-trifluoromethoxy-phenyl)-1H-imidazol-4-ylethynyl]-pyridine]: the inhibition constant Ki is 0.005 µM.
The same measure for `Cc1ccc(-n2c(C)nc(C#Cc3ccnc(Cl)c3)c2C)nc1` [compound 15, 2-[4-(2-Chloro-pyridin-4-ylethynyl)-2,5-dimethyl-1H-imidazol-1-yl]-5-methyl-pyridine]: 0.07 µM; for `Cc1nc(C#Cc2ccnc(Cl)c2)c(C)n1-c1ccc(Cl)nc1` [compound 16, 2-Chloro-5-[4-(2-Chloro-pyridin-4-ylethynyl)-2,5-dimethyl-1H-imidazol-1-yl]-pyridine]: 0.086 µM; for `Cc1cc(C(F)(F)F)cc(-n2c(C)nc(C#Cc3ccnc(Cl)c3)c2C)n1` [compound 17, 2-[4-(2-Chloro-pyridin-4-ylethynyl)-2,5-dimethyl-imidazol-1-yl]-6-methyl-4-trifluoromethyl-pyridine]: 0.079 µM.
Consider `Cc1nc(C#Cc2ccnc(Cl)c2)c(C)n1-c1cnccn1` [compound 18, 2-[4-(2-Chloro-pyridin-4-ylethynyl)-2,5-dimethyl-imidazol-1-yl]-pyrazine], for which the Ki was 0.108 µM.
On to `Cc1nc(C#Cc2ccnc(Cl)c2)c(C)n1-c1ccc(Cl)cc1` [compound 19, 2-Chloro-4-[1-(4-chloro-phenyl)-2,5-dimethyl-1H-imidazol-4-ylethynyl]-pyridine], for which the Ki stood at 0.02 µM.
For the compound `Cc1nc(C#Cc2ccnc(Cl)c2)c(C)n1-c1cccc(Cl)c1F` [compound 20, 2-Chloro-4-[1-(3-chloro-2-fluoro-phenyl)-2,5-dimethyl-1H-imidazol-4-ylethynyl]-pyridine], the inhibitory constant (Ki) worked out at 0.028 µM.
In the case of `Cc1nc(C#Cc2ccnc(Cl)c2)c(C)n1-c1cccc(C(F)(F)F)c1` [compound 21, 2-Chloro-4-[2,5-dimethyl-1-(3-trifluoromethyl-phenyl)-1H-imidazol-4-ylethynyl]-pyridine], the Ki was 0.055 µM.
For the compound `Cc1nc(C#Cc2ccnc(Cl)c2)c(C)n1-c1ccc(F)c(Cl)c1` [compound 22, 2-Chloro-4-[1-(3-chloro-4-fluoro-phenyl)-2,5-dimethyl-1H-imidazol-4-ylethynyl]-pyridine], the Ki came to 0.031 µM.
For the compound `Cc1cccc(-n2c(C)nc(C#Cc3ccnc(Cl)c3)c2C)n1` [compound 23, 2-[4-(2-Chloro-pyridin-4-ylethynyl)-2,5-dimethyl-1H-imidazol-1-yl]-6-methyl-pyridine], the Ki was determined as 0.093 µM.
As for `Cc1nc(C#Cc2ccnc(Cl)c2)c(C)n1-c1cccc(C(F)(F)F)n1` [compound 24, 2-[4-(2-Chloro-pyridin-4-ylethynyl)-2,5-dimethyl-1H-imidazol-1-yl]-6-(trifluoromethyl)-pyridine], the inhibition constant (Ki) was 0.026 µM.
Turning to `Cc1c(C#Cc2ccnc(Cl)c2)nn(C)c1-c1ccc(F)cc1` [compound 26, 2-Chloro-4-[5-(4-fluoro-phenyl)-1,4-dimethyl-1H-pyrazol-3-ylethynyl]-pyridine], the inhibition constant (Ki) is 0.0059 µM.
On to `Cc1nc(C#Cc2ccnc(Cl)c2)c(C(F)F)n1-c1ccc(F)cc1` [compound 27, 2-Chloro-4-[5-difluoromethyl-1-(4-fluoro-phenyl)-2-methyl-1H-imidazol-4-ylethynyl]-pyridine], for which the Ki came to 0.0422 µM.
In the case of `Cc1nc(C#Cc2ccnc(Cl)c2)c(CO)n1-c1ccc(F)cc1` [compound 28, [5-(2-Chloro-pyridin-4-ylethynyl)-3-(4-fluoro-phenyl)-2-methyl-3H-imidazol-4-yl]-methanol] it was 0.211 µM.
